Read-outs that look alike come from different tables or passages of the source.
Tests used:
[1] = biological target: human TLR7 (Homo sapiens (Human), UniProt Q9NYK1); assay: TLR7 inhibition reporter assay (HEK-Blue SEAP); type: cell-based
Protocol: (§1) HEK-Blue™-cells (Invivogen) overexpressing human TLR7, TLR8 or TLR9 receptors were used for screening inhibitors of these receptors using an inducible SEAP (secreted embryonic alkaline phosphatase) reporter gene under the control of the IFN-β minimal promoter fused to five NF-κB and AP-1-binding sites. Briefly, cells are seeded into Greiner 384 well plates (15000 cells per well for TLR7, 20,000 for TLR8 and 25,000 for TLR9) and then treated with test compounds in DMSO to yield a final dose response concentration range of 0.05 nM-50 μM. After a 30 minute compound pre-treatment at room temperature, the cells are then stimulated with a TLR7 ligand (gardiquimod at a final concentration of 7.5 μM), TLR8 ligand (R848 at a final concentration of 15.9 μM) or TLR9 ligand (ODN2006 at a final concentration of 5 nM) to activate NF-κB and AP-1 which induce the production of SEAP. After a 22 hour incubation at 37° C., 5% CO2, SEAP levels are determined with the addition of HEK-Blue™ Detection reagent (Invivogen), a cell culture medium that allows for detection of SEAP, according to manufacturer's specifications.

[2] = biological target: human TLR8 (Homo sapiens (Human), UniProt Q9NR97); assay: TLR8 inhibition reporter assay (HEK-Blue SEAP);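 also: SEAP driven by IFN-β minimal promoter carrying NF-κB and AP-1 sites, compounds dosed 0.05 nM to 50 µM for 22 h, inhibition scaled between agonist-plus-DMSO and reference-inhibitor wells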
Chain of human TLR8 (Q9NR97 27-1041): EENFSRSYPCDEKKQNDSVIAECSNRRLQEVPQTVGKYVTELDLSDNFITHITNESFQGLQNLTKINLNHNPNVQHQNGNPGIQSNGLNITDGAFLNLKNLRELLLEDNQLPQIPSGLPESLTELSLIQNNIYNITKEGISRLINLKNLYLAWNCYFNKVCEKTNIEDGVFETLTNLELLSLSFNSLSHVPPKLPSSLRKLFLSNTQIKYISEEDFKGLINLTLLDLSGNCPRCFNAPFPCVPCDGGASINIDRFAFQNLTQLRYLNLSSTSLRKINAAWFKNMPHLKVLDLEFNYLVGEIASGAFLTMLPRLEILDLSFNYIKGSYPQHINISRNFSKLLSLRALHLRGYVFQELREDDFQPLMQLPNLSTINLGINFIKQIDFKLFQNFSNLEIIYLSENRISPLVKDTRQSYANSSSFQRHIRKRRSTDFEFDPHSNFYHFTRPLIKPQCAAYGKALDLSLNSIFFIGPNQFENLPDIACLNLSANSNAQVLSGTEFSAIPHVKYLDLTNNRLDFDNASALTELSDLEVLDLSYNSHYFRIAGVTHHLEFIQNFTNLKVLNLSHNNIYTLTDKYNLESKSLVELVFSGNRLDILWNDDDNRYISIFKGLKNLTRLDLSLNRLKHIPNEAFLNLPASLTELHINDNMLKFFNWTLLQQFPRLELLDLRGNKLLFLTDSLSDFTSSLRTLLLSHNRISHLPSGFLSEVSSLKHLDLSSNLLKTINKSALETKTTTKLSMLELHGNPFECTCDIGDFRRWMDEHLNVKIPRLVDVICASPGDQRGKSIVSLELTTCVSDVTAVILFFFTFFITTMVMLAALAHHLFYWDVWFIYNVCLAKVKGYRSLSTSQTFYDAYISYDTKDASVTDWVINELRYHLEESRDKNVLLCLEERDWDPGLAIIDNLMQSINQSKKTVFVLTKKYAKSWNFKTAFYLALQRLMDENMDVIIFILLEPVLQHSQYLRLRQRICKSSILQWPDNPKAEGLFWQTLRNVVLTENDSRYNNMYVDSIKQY

[3] = biological target: human TLR9 (Homo sapiens (Human), UniProt Q9NR96); assay: TLR9 inhibition reporter assay (HEK-Blue SEAP);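 also: SEAP driven by an IFN-β minimal promoter with NF-κB and AP-1 sites, read after 22 h, compounds dosed 0.05 nM–50 µM, inhibition scaled between agonist plus DMSO and reference-inhibitor wells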
Chain of human TLR9 (Q9NR96 26-1032): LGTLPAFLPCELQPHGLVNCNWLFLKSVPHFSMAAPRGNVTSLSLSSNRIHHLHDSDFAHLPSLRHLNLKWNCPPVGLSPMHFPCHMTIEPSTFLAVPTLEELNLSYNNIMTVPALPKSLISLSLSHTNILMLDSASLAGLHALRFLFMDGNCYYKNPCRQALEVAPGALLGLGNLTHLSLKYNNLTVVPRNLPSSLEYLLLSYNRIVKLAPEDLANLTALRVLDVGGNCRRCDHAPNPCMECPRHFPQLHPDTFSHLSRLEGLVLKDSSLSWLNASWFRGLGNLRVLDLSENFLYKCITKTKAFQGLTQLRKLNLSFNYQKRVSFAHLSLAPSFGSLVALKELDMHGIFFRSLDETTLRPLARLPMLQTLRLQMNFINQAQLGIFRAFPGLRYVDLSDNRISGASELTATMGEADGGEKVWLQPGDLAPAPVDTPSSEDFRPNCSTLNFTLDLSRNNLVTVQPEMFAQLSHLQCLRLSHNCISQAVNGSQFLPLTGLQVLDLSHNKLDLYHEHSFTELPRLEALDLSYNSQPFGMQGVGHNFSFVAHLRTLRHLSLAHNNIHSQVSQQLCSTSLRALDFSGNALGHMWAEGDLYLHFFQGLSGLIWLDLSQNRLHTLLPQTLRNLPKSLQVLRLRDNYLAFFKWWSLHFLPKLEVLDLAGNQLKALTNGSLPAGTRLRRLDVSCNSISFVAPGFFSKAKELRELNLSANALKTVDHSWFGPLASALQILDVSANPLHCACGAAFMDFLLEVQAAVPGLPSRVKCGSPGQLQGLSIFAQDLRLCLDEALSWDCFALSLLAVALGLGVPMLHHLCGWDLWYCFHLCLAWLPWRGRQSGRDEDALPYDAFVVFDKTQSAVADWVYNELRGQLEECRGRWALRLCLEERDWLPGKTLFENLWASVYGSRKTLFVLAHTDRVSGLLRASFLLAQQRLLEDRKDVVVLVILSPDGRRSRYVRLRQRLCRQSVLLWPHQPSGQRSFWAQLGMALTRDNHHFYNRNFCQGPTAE
Protocol: as §1

[4] = HEK-Blue human TLR7 cells, gardiquimod 7.5 μM
[5] = read-out: TLR8 IC50, HEK-Blue human TLR8 cells, R848 15.9 μM
[6] = read-out: TLR9 IC50, HEK-Blue human TLR9 cells, ODN2006 5 nM
[7] = HEK-Blue cells overexpressing human TLR7, SEAP reporter, gardiquimod 7.5 μM
[8] = read-out: TLR8 IC50, HEK-Blue cells overexpressing human TLR8, SEAP reporter, R848 15.9 μM
[9] = read-out: TLR9 IC50, HEK-Blue cells overexpressing human TLR9, SEAP reporter, ODN2006 5 nM
[10] = HEK-Blue cells overexpressing human TLR7, gardiquimod 7.5 μM stimulation, SEAP reporter
[11] = read-out: TLR8 IC50, HEK-Blue cells overexpressing human TLR8, R848 15.9 μM stimulation, SEAP reporter
[12] = read-out: TLR9 IC50, HEK-Blue cells overexpressing human TLR9, ODN2006 5 nM stimulation, SEAP reporter

Chain of human TLR7 (Q9NYK1 27-1049): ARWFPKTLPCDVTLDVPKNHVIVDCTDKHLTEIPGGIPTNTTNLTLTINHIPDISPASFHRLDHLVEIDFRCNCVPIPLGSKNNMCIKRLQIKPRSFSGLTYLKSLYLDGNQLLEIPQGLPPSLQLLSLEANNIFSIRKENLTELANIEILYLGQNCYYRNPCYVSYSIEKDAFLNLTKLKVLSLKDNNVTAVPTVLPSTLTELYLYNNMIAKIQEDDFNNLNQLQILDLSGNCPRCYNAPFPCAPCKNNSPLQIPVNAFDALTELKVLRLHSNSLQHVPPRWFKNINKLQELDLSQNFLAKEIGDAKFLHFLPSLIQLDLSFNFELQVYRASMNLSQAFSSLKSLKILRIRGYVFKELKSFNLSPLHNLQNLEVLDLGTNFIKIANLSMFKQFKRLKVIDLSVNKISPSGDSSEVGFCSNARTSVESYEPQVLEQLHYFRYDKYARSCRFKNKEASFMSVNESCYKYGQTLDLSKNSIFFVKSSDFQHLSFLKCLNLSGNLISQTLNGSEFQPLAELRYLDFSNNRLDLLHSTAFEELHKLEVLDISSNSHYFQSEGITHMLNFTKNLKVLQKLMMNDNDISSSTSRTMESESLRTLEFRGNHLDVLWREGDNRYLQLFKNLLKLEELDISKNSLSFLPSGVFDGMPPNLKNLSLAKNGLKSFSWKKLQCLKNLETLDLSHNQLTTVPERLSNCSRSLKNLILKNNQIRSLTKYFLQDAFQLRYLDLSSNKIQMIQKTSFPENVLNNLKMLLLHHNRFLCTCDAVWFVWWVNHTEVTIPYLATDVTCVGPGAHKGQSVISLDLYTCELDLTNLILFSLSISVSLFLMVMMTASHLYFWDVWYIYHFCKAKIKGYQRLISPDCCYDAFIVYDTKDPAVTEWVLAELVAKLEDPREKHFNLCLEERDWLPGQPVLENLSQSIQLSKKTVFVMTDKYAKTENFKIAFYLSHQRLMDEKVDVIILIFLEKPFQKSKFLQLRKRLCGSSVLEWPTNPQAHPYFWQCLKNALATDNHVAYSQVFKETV

SMILES	IC50 [1, 7] [nM]	IC50 [2, 8] [nM]	IC50 [3, 9] [nM]	IC50 [1, 10] [nM]	further results
Cc1c(-c2[nH]c3ccc(N4CCN(CCCS(C)(=O)=O)[C@H](C)C4)nc3c2C(C)C)cn2ncnc2c1C [Example 856]	–	–	–	–	IC50 [1, 4]: 7.3 nM; IC50 [2, 5]: 0.46 nM; IC50 [3, 6]: 27100 nM
CNC(=O)CN(C)C1CCC(c2ccc3[nH]c(-c4cn5ncnc5c(C)c4C)c(C(C)C)c3n2)CC1 (stereo not drawn) [Example 403]	7.7	44	4280	–	–
Cc1c(-c2[nH]c3ccc(C4CCC(N5CC6(CCOC6)C5)CC4)nc3c2C(C)C)cn2ncnc2c1C (stereo not drawn) [Example 1061]	–	–	–	–	IC50 [1, 4]: 2.7 nM; IC50 [2, 5]: 4.8 nM; IC50 [3, 6]: 3180 nM
Cc1c(-c2[nH]c3cc(F)c(C4CCC(NC5CCOCC5)CC4)nc3c2C(C)C)cn2ncnc2c1C (stereo not drawn) [Example 505]	3.5	4.9	7600	–	–
COc1cc(-c2[nH]c3cc(F)c(C4CCC(NCC5(C)COC5)CC4)nc3c2C(C)C)cn2ncnc12 (stereo not drawn) [Example 341]	–	–	–	0.12	IC50 [2, 11]: 0.32 nM; IC50 [3, 12]: 2640 nM
CCN(CC(=O)N(C)C)C1CCC(c2ccc3[nH]c(-c4cn5ncnc5c(C)c4C)c(C(C)C)c3n2)CC1 (stereo not drawn) [Example 462]	6.9	8.4	4540	–	–
Cc1c(-c2[nH]c3ccc(CCC4CN(CC(=O)N(C)C)C4)nc3c2C(C)C)cn2ncnc2c1C [Example 696]	75	36	1310	–	–
Cc1c(-c2[nH]c3ccc(N4CCN(C(=O)CN5CCCC5)[C@H](C)C4)nc3c2C(C)C)cn2ncnc2c1C [Example 941]	–	–	–	–	IC50 [1, 4]: 0.66 nM; IC50 [2, 5]: 0.66 nM; IC50 [3, 6]: 7200 nM
COc1cc(-c2[nH]c3ccc(C4CCC(NC5CCOCC5)C4)nc3c2C(C)C)cn2ncnc12 (stereo not drawn) [Example 707]	1.5	5.3	1410	–	–
Cc1c(-c2[nH]c3ccc(C4CC(NC5CCOCC5)C4)nc3c2C(C)C)cn2ncnc2c1C (stereo not drawn) [Example 635]	5.7	1.1	1780	–	–
Cc1c(-c2[nH]c3ccc(C4CCC(NC5COC5)CC4)nc3c2C(C)C)cn2ncnc2c1C (stereo not drawn) [Example 350]	–	–	–	0.72	IC50 [2, 11]: 1 nM; IC50 [3, 12]: 1160 nM
COc1cc(-c2[nH]c3ccc(OC4CCN(C(C)C)CC4)nc3c2C(C)C)cn2ncnc12 [Example 603, 6-(3-isopropyl-5-((1-isopropylpiperidin-4-yl)oxy)-1H-pyrrolo[3,2-b]pyridin-2-yl)-8-methoxy-[1,2,4]triazolo[1,5-a]pyridine]	1.5	5.2	1190	–	–
COc1cc(-c2[nH]c3ccc(C4CCC(N)C4)nc3c2C(C)C)cn2ncnc12 (single isomer, unassigned) [Example 8, 3-(3-isopropyl-2-(8-methoxy-[1,2,4]triazolo[1,5-a]pyridin-6-yl)-1H-pyrrolo[3,2-b]pyridin-5-yl)cyclopentan-1-amine]	–	–	–	4.7	IC50 ([2]; TLR8 IC50, HEK-Blue cells overexpressing human TLR8, R848 15.9 μM stimulation, SEAP reporter): 21 nM; IC50 ([3]; TLR9 IC50, HEK-Blue cells overexpressing human TLR9, ODN2006 5 nM stimulation, SEAP reporter): 8550 nM
Cc1c(-c2[nH]c3ccc(N4C[C@H](C)N(C(=O)CCN(C)C)C[C@H]4C)nc3c2C(C)C)cn2ncnc2c1C [Example 840]	–	–	–	–	IC50 [1, 4]: 0.38 nM; IC50 [2, 5]: 1.5 nM; IC50 [3, 6]: 7400 nM
Cc1c(-c2[nH]c3ccc(N4CCN(C(=O)CN)CC4)nc3c2C(C)C)cn2ncnc2c1C [Example 832]	–	–	–	–	IC50 [1, 4]: 4 nM; IC50 [2, 5]: 2.3 nM; IC50 [3, 6]: 16800 nM
Cc1c(-c2[nH]c3ccc(N4CCN(CCC(N)=O)[C@@H](C)C4)nc3c2C(C)C)cn2ncnc2c1C [Example 791]	5.3	1.1	18100	–	–
COc1cc(-c2[nH]c3ccc(C4CCC(N(C)Cc5cnc(C)cn5)CC4)nc3c2C(C)C)cn2ncnc12 (stereo not drawn) [Example 203]	–	–	–	2	IC50 [2, 11]: 7.9 nM; IC50 [3, 12]: 537 nM
COc1cc(-c2[nH]c3ccc(N4CCN(CCC(C)C)CC4)nc3c2C(C)C)cn2ncnc12 [Example 110]	–	–	–	1.9	IC50 [2, 11]: 0.76 nM; IC50 [3, 12]: 4540 nM
Cc1c(-c2[nH]c3ccc(C4CCC(NC5(C(=O)N(C)C)CCCC5)CC4)nc3c2C(C)C)cn2ncnc2c1C (stereo not drawn) [Example 494]	5.2	2.8	14100	–	–
[2H]C([2H])(C(=O)N1CCN(c2ccc3[nH]c(-c4cn5ncnc5c(C)c4C)c(C(C)C)c3n2)CC1)N(C)C (single isomer, unassigned) [Example 889]	–	–	–	–	IC50 [1, 4]: 1.5 nM; IC50 ([2]; TLR8 IC50, HEK-Blue human TLR8 cells, R848 15.9 μM): 0.76 nM; IC50 ([3]; TLR9 IC50, HEK-Blue human TLR9 cells, ODN2006 5 nM): 9840 nM
COc1cc(-c2[nH]c3cc(F)c(C4CCN(CC(=O)N(C)C)CC4)nc3c2C(C)C)cn2ncnc12 [Example 583]	0.32	5.1	1550	–	–
CNC(=O)CN(C)C1CCC(c2ccc3[nH]c(-c4cn5ncnc5c(C)c4C)c(C(C)C)c3n2)CC1 (stereo not drawn) [Example 422]	15	35	6240	–	–

SMILES	IC50 [1, 7] [nM]	IC50 [2, 8] [nM]	IC50 [3, 9] [nM]	IC50 [1, 10] [nM]	further results
Cc1c(-c2[nH]c3ccc(N4C[C@@H](C)N(C(=O)CCN5CC6(COC6)C5)C[C@@H]4C)nc3c2C(C)C)cn2ncnc2c1C [Example 908]	–	–	–	–	IC50 [1, 4]: 0.89 nM; IC50 [2, 5]: 0.26 nM; IC50 [3, 6]: 6460 nM
Cc1cc(-c2[nH]c3ccc(C4CCC(NC5COC5)CC4)nc3c2C(C)C)cc(C)n1 (stereo not drawn) [Example 282]	–	–	–	0.32	IC50 [2, 11]: 0.91 nM; IC50 [3, 12]: 661 nM
CC(C)c1c(-c2cn(C)c3ncncc23)[nH]c2ccc(C3CCC(NCCS(C)(=O)=O)CC3)nc12 (stereo not drawn) [Example 304]	–	–	–	0.53	IC50 [2, 11]: 1.8 nM; IC50 [3, 12]: 1070 nM
Cc1c(-c2[nH]c3ccc(C4CCC(N(C)C5CC5)CC4)nc3c2C(C)C)cn2ncnc2c1C (stereo not drawn) [Example 380]	–	–	–	1.4	IC50 [2, 11]: 1.6 nM; IC50 [3, 12]: 1880 nM
Cc1c(-c2[nH]c3ccc(C4CC5(CNC5)C4)nc3c2C(C)C)cn2ncnc2c1C [Example 745, 6-(3-isopropyl-5-(2-azaspiro[3.3]heptan-6-yl)-1H-pyrrolo[3,2-b]pyridin-2-yl)-7,8-dimethyl-[1,2,4]triazolo[1,5-a]pyridine]	2.2	5.8	2450	–	–
CNC(=O)C(C)(C)NC1CCC(c2ccc3[nH]c(-c4cn5ncnc5c(C)c4C)c(C(C)C)c3n2)CC1 (stereo not drawn) [Example 487]	0.75	0.49	2290	–	–
Cc1c(-c2[nH]c3ccc(N4CC5(CN(CC(C)(C)C)C5)C4)nc3c2C(C)C)cn2ncnc2c1C [Example 1010]	–	–	–	–	IC50 [1, 4]: 3.6 nM; IC50 [2, 5]: 4.7 nM; IC50 [3, 6]: 2430 nM
Cc1c(-c2[nH]c3ccc(C4CCN(CC(N)=O)CC4)nc3c2C(C)C)cn2ncnc2c1C [Example 560]	1.2	1	3820	–	–
Cc1c(-c2[nH]c3ccc(N4CCC(N(C)C5COC5)CC4)nc3c2C(C)C)cn2ncnc2c1C [Example 65]	–	–	–	1.9	IC50 [2, 11]: 1.3 nM; IC50 [3, 12]: 25100 nM
Cc1c(-c2[nH]c3ccc(N4C[C@H]5C[C@@H](C4)N5)nc3c2C(C)C)cn2ncnc2c1C [Example 985]	–	–	–	–	IC50 [1, 4]: 1.6 nM; IC50 [2, 5]: 1.1 nM; IC50 [3, 6]: 3900 nM
Cc1cnc(CNC2CCC(c3ccc4[nH]c(-c5cn6ncnc6c(C)c5C)c(C(C)C)c4n3)CC2)cn1 (stereo not drawn) [Example 359]	–	–	–	9.1	IC50 [2, 11]: 29 nM; IC50 [3, 12]: 4870 nM
Cc1c(-c2[nH]c3ccc(N4CCN(CC(=O)N(C)C)CC4=O)nc3c2C(C)C)cn2ncnc2c1C [Example 141]	–	–	–	134	IC50 [2, 11]: 148 nM; IC50 [3, 12]: > 50000 nM
Cc1c(-c2[nH]c3ccc(N4CCC(N(C)Cc5ncccn5)CC4)nc3c2C(C)C)cn2ncnc2c1C [Example 60]	–	–	–	5.6	IC50 [2, 11]: 5.9 nM; IC50 [3, 12]: 20200 nM
Cc1c(-c2[nH]c3ccc(C4CC(N(C)C)C4)nc3c2C(C)C)cn2ncnc2c1C (stereo not drawn) [Example 623]	1.6	2	3130	–	–
Cc1c(-c2[nH]c3ccc(C4CCC(N(CCO)C5COC5)CC4)nc3c2C(C)C)cn2ncnc2c1C (stereo not drawn) [Example 444]	16	5.2	39200	–	–
Cc1c(-c2[nH]c3ccc(C4CN(CCS(C)(=O)=O)CCO4)nc3c2C(C)C)cn2ncnc2c1C (stereo not drawn) [Example 674]	32	48	> 50000	–	–
Cc1c(-c2[nH]c3ccc(C4CCC(NCc5cnco5)CC4)nc3c2C(C)C)cn2ncnc2c1C (stereo not drawn) [Example 416]	[…]	1.2	1620	–	–
CC(=O)N(C)C1CCC(c2ccc3[nH]c(-c4cn5ncnc5c(C)c4C)c(C(C)C)c3n2)CC1 (stereo not drawn) [Example 440]	6.4	14	> 50000	–	–
Cc1c(-c2[nH]c3ccc(N4C[C@H](C)N(C(=O)CN5CC6(COC6)C5)C[C@H]4C)nc3c2C(C)C)cn2ncnc2c1C [Example 935]	–	–	–	–	IC50 [1, 4]: 0.48 nM; IC50 [2, 5]: 2.9 nM; IC50 [3, 6]: 5610 nM
CNC1CN(c2ccc3[nH]c(-c4cn5ncnc5c(C)c4C)c(C(C)C)c3n2)C1 [Example 20]	–	–	–	2.7	IC50 [2, 11]: 1.3 nM; IC50 [3, 12]: 614 nM
CCN(CC)C1CCC(c2ccc3[nH]c(-c4cn5ncnc5c(C)c4C)c(C(C)C)c3n2)CC1 (stereo not drawn) [Example 378]	–	–	–	1.6	IC50 [2, 11]: 4.6 nM; IC50 [3, 12]: 1640 nM
Cc1cc(-c2[nH]c3ccc(C4CCN(C5CCN(C)C5=O)CC4)nc3c2C(C)C)cn2ncnc12 (stereo not drawn) [Example 561]	0.64	3	5650	–	–

Reference: patent publication US10544143B2, “4-azaindole compounds” (BRISTOL-MYERS SQUIBB COMPANY, priority 2017, dated 2020)
